Test results from US9518271B2, “Lentiviral-based vector and its use in directed evolution of genomic regions, genes and polynucleotides” (CENTRE NATIONAL DE LA RECHERCHE SCIENTIFIQUE, priority 2009, dated 2016).

What was measured:
[1] = test system: Jurkat SLP-76−/−plL2-luc cell clone; assay: Luciferase induction in Jurkat SLP-76-/- pIL2-luc cell clone; format: cell-based; conditions: IL2 promoter-driven luciferase; PMA and Calcimycine applied together
From the text: (§1) Concerning the screening based on the two luciferase-based readouts (either the one based on transcription driven by the NFAT or by IL2), the inventors have constructed two cell lines which as such are also part of the present invention: • the Jurkat SLP-76−/−plL2-luc cell clone, deposited at the CNCM (Paris, France) under accession number I-4236 on Oct. 30, 2009, in the name of Institut Pasteur, 25-28 rue du Docteur Roux, 75724 Paris Cedex 15, and resulting from the introduction in Jurkat J14 cells (SLP-76−/−) of the firefly luciferase gene under the control of two copies of the IL2 promoter; and • the Jurkat SLP-76−/−NFAT-luc cell clone, deposited at the CNCM under accession number I-4237 on Oct. 30, 2009, in the name of Institut Pasteur, 25-28 rue du Docteur Roux, 75724 Paris Cedex 15, and resulting from the introduction in Jurkat J14 cells (SLP-76−/−) of the firefly luciferase gene preceded by three copies of the NFAT binding site.

[2] = test system: Jurkat SLP-76−/−NFAT-luc cell clone; assay: Luciferase induction in Jurkat SLP-76-/- NFAT-luc cell clone; format: cell-based; conditions: NFAT binding site-driven luciferase; PMA and Calcimycine applied together
From the text: as §1

Messa 10K cells [3] = conditions: Messa 10K cells lacking functional dCK; read-out: Gemcitabine 1050; cited from earlier work
HEK 293T cells [4] = assay: Cell death (MTT assay) of HEK 293T clones carrying dCK variants exposed to AraC; format: cell-based, human; conditions: increasing concentrations of AraC, 72 h, FIG. 8
From the text: FIG. 8 discloses the cell survival with regard to increasing concentrations of AraC (μM) in presence of the wild type dCK gene (white triangles and solid thick curve) or variants containing point mutations or deletion in the dCK gene (other curves). Each plot represents the average of three independent experiments.
(§2) 80 individual cellular clones at the F17 generation, obtained after transduction of 293T cells at a low multiplicity of infection (and therefore carrying a single variant of the target polynucleotide) have been isolated. The 80 clones have been tested for the kinetic of cell death induced after their exposal to different concentrations of the two anti-cancer drugs, AraC and Gemcitabine, which are cytidine analogues (the natural substrate of dCK) as follows.
Individual clones have been isolated after transduction of HEK 293T cells at low multiplicity of transduction (m.o.i.) and seeding of the transduced cells at limiting dilutions in 96-well plates. […] Seventy-two hours after exposure, cell death has been evaluated for each independent clone and for each drug treatment condition using the MTT assay (Promega) that is a colorimetric test used to quantify cell viability and proliferation. A relative rate of cell death has been calculated for each clone, with respect to the values observed in the plate where no drug was included. […]

HEK 293T cells [5] = assay: Cell death (MTT assay) of HEK 293T clones carrying dCK variants exposed to Gemcitabine; format: cell-based, human; conditions: 10 nM Gemcitabine, average of 4 independent experiments
From the text: as §2
Individual clones have been isolated after transduction of HEK 293T cells at low multiplicity of transduction (m.o.i.) and seeding of the transduced cells at limiting dilutions in 96-well plates. Individual cell clones growing in the presence of puromycin have then been expanded and seeded in parallel in several replicated 96-well plates. All these plates, with the exception of one to use as control, have been exposed to the anticancer drug at different concentrations, while the control plate has been maintained in the absence of drug. Seventy-two hours after exposure, cell death has been evaluated for each independent clone and for each drug treatment condition using the MTT assay (Promega) that is a colorimetric test used to quantify cell viability and proliferation. A relative rate of cell death has been calculated for each clone, with respect to the values observed in the plate where no drug was included. […]

Messa 10K cells [6] = assay: Sensitivity to Gemcitabine of Messa 10K cells transduced with dCK variants; format: cell-based, human
Experimental: FIG. 10 discloses (A) the cell survival with regard to increasing concentrations of Gemcitabine (nM) in untransduced Messa 10K cells (grey solid line), in presence of the wild type dCK gene (large dashed lines) or in presence of dCK G12 variants gene (black solid lines); (B) the survival of Messa 10K cells in presence of 75 nM Gemcitabine in untransduced Messa 10K cells (Messa10K), in Messa 10K cells transduced with a viral vector carrying a wild type dCK gene (M-dCK), in Messa 10K cells transduced with a viral vector carrying the E8 variant dCK gene with mutations G>A 739 et C>A 745 (M-E8) or in Messa 10K cells transduced with a viral vector carrying the G12 variant dCK gene (M-G12), and (C) Western Blot to detect dCK expression on cell lysates, using a polyclonal rabbit antibody; M: untransduced Messa10K cells; M-dCK: Messa10K transduced with a vector carrying the wt dCK gene (4 independent populations); M-G12: Messa10K transduced with a vector carrying the G12 mutant (4 independent populations).
FIG. 11 discloses the cell survival with regard to increasing concentrations of Gemcitabine (nM) in untransduced Messa10K cells (small dashed line), in Messa10K cells transduced with a vector carrying the wt dCK gene (large dashed line; n=5), in Messa10K cells transduced with a vector carrying the sequence of the dCK G12 variant re-inserted in a wild-type backbone (light grey line; n=5), in Messa10K cells transduced with a vector rescued from the 293T-G12-F16 cell line (dark grey line; n=5) and in Messa10K cells transduced with a vector rescued from the 293T-G12-F17 cell line (solid black line; n=5). […]
For these reasons, a strategy for the screening on Messa 10K cells (illustrated in FIG. 9) was set up, aiming at averaging the epigenetic effects possibly influencing the final phenotype by analysing a population of target cells containing the same dCK variant inserted in different sites of the genome. […] The totality of the clones of the same variant were cultivated and analysed for the sensitivity to Gemcitabine in the assay previously described. […]

In the case of `CNc1ccc2oc(C[C@H]3O[C@@]4(CC[C@H]3C)O[C@H]([C@H](C)C(=O)c3ccc[nH]3)[C@H](C)C[C@H]4C)nc2c1C(=O)O` [Calcimycine], the induction of luciferase [1] is reported as “strong induction” and the induction of luciferase [2] is reported as “strong induction”.
For `Nc1ccn([C@@H]2O[C@H](CO)[C@@H](O)C2(F)F)c(=O)n1` [Gemcitabine], the IC50 (Messa 10K cells [3]) is listed as 11 µM.
With `CCCCCCCCCCCCCC(=O)O[C@@H]1[C@@H](C)[C@@]2(O)[C@@H](C=C(CO)C[C@]3(O)C(=O)C(C)=C[C@@H]23)[C@@H]2C(C)(C)[C@]12OC(C)=O` [Phorbol Myristate Acetate] the induction of luciferase [1] was “strong induction” and the induction of luciferase [2] was “strong induction”.
In the case of “G7: dCK variant with a G to A transition at position 521, leading to the G174E variation at the amino acid level [Clone G7]”, the “cell death induced by AraC compared with wt dCK” value (HEK 293T cells [4]) is reported as “clear tendency to induce cell death”.
With “G12: dCK variant with a G to A transition at position 511 (E171K at the amino acid level) [Clone G12]” the “ratio of cell survival in G12 cells/dCK cells” value (HEK 293T cells [5]) was 0.50±0.11, the cell death ratio (Messa 10K cells [6]; 75 nM Gemcitabine, transduced Messa 10K cells, FIG. 10B) was 90% and the “sensitivity to Gemcitabine conferred after re-insertion in a wild type lentiviral vector” value (Messa 10K cells [6]; G12 subcloned from cell line F16, Messa 10K cells, FIG. 11) was “maintains the ability to confer increased sensitivity to Gemcitabine”. The “cell death by Gemcitabine compared with wild type dCK” value (Messa 10K cells [6]; transduced Messa 10K cells, four rounds of screening, FIG. 10A/10B) was “cell death ratio higher than the one induced from a wild type dCK”.
